The values below come from ChEMBL document CHEMBL3865826, “Synthesis and biological evaluation of a series of non-hemiacetal ester derivatives of artemisinin” (Eur J Med Chem, 2016).

Molecules are shown by their SMILES. A value given as a limit tells only on which side of the number the result lay.

Series [1] in a line: Thermal stability of the compound assessed as melting point by thermogravimetric analysis. It counts as physicochemical.
In series [2] the test system is Plasmodium falciparum. Briefly: Antiplasmodial activity against chloroquine-sensitive asexual erythrocyte stage form Plasmodium falciparum NF54 measured after 48 hrs by pLDH assay. The conditions noted are these: NF54, 48 h. It counts as functional.
For series [3], the system named is Plasmodium falciparum. Kind of series: Antiplasmodial activity against chloroquine-resistant asexual erythrocyte stage form Plasmodium falciparum Dd2 measured after 48 hrs by pLDH assay. It counts as functional. The conditions noted are these: Dd2, 48 h.
Series [4] is described as follows: Resistance index, ratio of IC50 for chloroquine-resistant asexual erythrocyte stage form Plasmodium falciparum Dd2 to IC50 for chloroquine-sensitive asexual erythrocyte stage form Plasmodium falciparum NF54. It counts as functional.
Series [5] in a line: Cytotoxicity against human WI38 cells assessed as reduction in cell viability measured after 48 hrs by SRB assay. In kind it is toxicity, cell-based, WI-38. A general note: The SRB assay estimates cell density from bound dye.
The nature of series [6]: Cytotoxicity against CHO cells assessed as reduction in cell viability measured after 48 hrs by MTT assay. The conditions noted are these: Chinese hamster. It counts as toxicity, cell-based, Cricetulus griseus.
Series [7] can be described thus: Selectivity index, ratio of IC50 for human WI38 cells to IC50 for chloroquine-sensitive asexual erythrocyte stage form Plasmodium falciparum NF54. In kind it is toxicity, cell-based, WI-38. The conditions noted are these: read-out: Ratio IC50.
Series [8] in a line: Selectivity index, ratio of IC50 for CHO cells to IC50 for chloroquine-sensitive asexual erythrocyte stage form Plasmodium falciparum NF54. It counts as toxicity, cell-based. The conditions noted are these: hamster, read-out: Ratio IC50.
A short description of series [9]: Growth inhibition of human TK10 cells measured after 24 hrs by SRB assay. It counts as functional, cell-based. The conditions noted are these: TK-10, 24 h.
Series [10] can be described thus: Growth inhibition of human UACC62 cells measured after 24 hrs by SRB assay. It counts as functional, cell-based. The conditions noted are these: UACC-62, 24 h.
Series [11] can be described thus: Growth inhibition of human MCF7 cells measured after 24 hrs by SRB assay. In kind it is functional, cell-based. The conditions noted are these: MCF7, 24 h.
The test system of series [12] is WI-38. Kind of series: Selectivity index, ratio of IC50 for human WI38 cells to IC50 for human TK10 cells. In kind it is functional.
Series [13] relates to UACC-62. Briefly: Selectivity index, ratio of IC50 for human WI38 cells to IC50 for human UACC62 cells. It counts as functional.
Series [14] has as its system MCF7. Briefly: Selectivity index, ratio of IC50 for human WI38 cells to IC50 for human MCF7 cells. It counts as functional.
For series [15], the system named is CHO. Kind of series: Selectivity index, ratio of IC50 for CHO cells to IC50 for human TK10 cells. It counts as functional.
The test system of series [16] is CHO. Kind of series: Selectivity index, ratio of IC50 for CHO cells to IC50 for human UACC62 cells. It counts as functional.
In series [17] the test system is CHO. Kind of series: Selectivity index, ratio of IC50 for CHO cells to IC50 for human MCF7 cells. It counts as functional.
A short description of series [18]: Selectivity index, ratio of IC50 for human TK10 cells to IC50 for chloroquine-resistant asexual erythrocyte stage form Plasmodium falciparum Dd2. It counts as functional, TK-10.
Series [19] can be described thus: Selectivity index, ratio of IC50 for human UACC62 cells to IC50 for chloroquine-resistant asexual erythrocyte stage form Plasmodium falciparum Dd2. In kind it is functional, UACC-62.
Series [20] can be described thus: Selectivity index, ratio of IC50 for human MCF7 cells to IC50 for chloroquine-resistant asexual erythrocyte stage form Plasmodium falciparum Dd2. In kind it is functional.
A short description of series [21]: Thermal stability of the compound assessed as onset of decomposition temperature by thermogravimetric analysis. In kind it is physicochemical.
The nature of series [22]: Thermal stability of the compound assessed as endotherm temperature by differential scanning calorimetry. In kind it is physicochemical.
Series [23] in a line: Thermal stability of the compound assessed as transition temperature by differential scanning calorimetry. In kind it is physicochemical. On the technique in general: DSC measures the heat that a sample takes up or gives off during a temperature scan.
A short description of series [24]: Safety index, ratio of compound IC50 to emetine IC50 for human WI38 cells. The conditions noted are these: read-out: Ratio IC50. In kind it is ADME, cell-based, WI-38.
Series [25] in a line: Safety index, ratio of compound IC50 to emetine IC50 for CHO cells. In kind it is ADME, cell-based, Cricetulus griseus. The conditions noted are these: Chinese hamster, read-out: Ratio IC50.

Take `C[C@@H]1CC[C@H]2C(C)(COC(=O)c3ccc(F)cc3)O[C@@H]3O[C@]4(C)CC[C@@H]1[C@]32OO4` (stereo partly specified): the Tm in series [1] was 171.9 °C. Besides, the half-maximal inhibitory concentration (IC50) – broadly, the point on the concentration scale where inhibition reaches its midpoint – in [2] was 0.0037 µM; in [3], 0.0044 µM; in [9] it was 41.7 µM; in [10], 12 µM; in series [11] it was 2.5 µM. In addition, the “Ratio IC50” value in [4] is 1.2; in [12], greater than 2; in series [13], greater than 8; in series [14], greater than 40; in series [15], greater than 2; in series [16], greater than 8. Besides, the “Ratio IC50” value is greater than 40 in [17], 6415 in series [18], 1846 in series [19] and 385 in series [20]. The IC50 at 48 h in series [5] and in [6] was greater than 100 µM each time. In addition, the values for the selectivity ratio in series [7] and in series [8] were greater than 27000 and 27000, respectively.
With `CC(=O)OCC1(C)O[C@@H]2O[C@]3(C)CC[C@H]4[C@H](C)CC[C@@H]1[C@@]24OO3` (stereo partly specified), the figures for the T in [21] and in series [22] were 164 °C and 90 °C, respectively. Besides, the Tm in series [1] was 171.2 °C. The IC50 in series [2] is 0.0112 µM; in [3], 0.0126 µM; in [9] it was greater than 100 µM; in series [10], greater than 100 µM; in [11] it was greater than 100 µM. Further, in series [4], the “Ratio IC50” value is reported as 1.1. Also, the IC50 at 48 h in series [5] and in [6] was greater than 100 µM throughout. For the same compound, the selectivity ratio in series [7] and in series [8] was greater than 8920 throughout.
In the case of `C[C@@H]1CC[C@H]2C(C)(COC(=O)c3ccc(-c4ccccc4)cc3)O[C@@H]3O[C@]4(C)CC[C@@H]1[C@]32OO4` (stereo partly specified), the Tm in series [1] is 173.8 °C. For the same compound, the IC50 in series [2] is 0.0073 µM; in series [3], 0.0065 µM; in [9], 41.7 µM; in [10], 12 µM; in series [11] it was 2.51 µM. Further, the “Ratio IC50” value is 0.9 in series [4]; greater than 2 in series [12]; greater than 8 in series [13]; greater than 40 in series [14]; greater than 2 in series [15]; greater than 8 in series [16]. Further, the “Ratio IC50” value is on record as greater than 40 in series [17], 6415 in [18], 1846 in series [19] and 385 in [20]. The IC50 at 48 h in [5] and in series [6] was greater than 100 µM each time. The selectivity ratio in series [7] and in series [8] was greater than 13700 throughout.
Regarding `C[C@@H]1CC[C@H]2C(C)(COC(=O)c3ccc([N+](=O)[O-])cc3)O[C@@H]3O[C@]4(C)CC[C@@H]1[C@]32OO4` (stereo partly specified), the results for the T in series [21] and in series [23] were 220 °C and 110 °C, respectively. Besides, in [1], the Tm was 172.4 °C. For the same compound, the IC50 in series [2] is 0.0067 µM; in series [3], 0.0026 µM; in series [9] it was 56 µM; in series [10], greater than 100 µM; in series [11], 44.4 µM. In addition, the “Ratio IC50” value in series [4] is recorded as 0.4; in series [12], greater than 2; in series [14] it was greater than 2; in series [15], greater than 2; in series [17], greater than 2; in series [18], 21539. In addition, the “Ratio IC50” value in series [19] is 17077. Further, the concentration for half-maximal inhibition (IC50) at 48 h in series [5] and in series [6] was greater than 100 µM each time. Besides, the selectivity ratio in [7] and in [8] was greater than 14900 throughout.
Consider `C[C@@H]1CC[C@H]2C(C)(COC(=O)[C@@H]3CCCN3C(=O)C(F)(F)F)O[C@@H]3O[C@]4(C)CC[C@@H]1[C@]32OO4` (stereo partly specified), for which the T is 126 °C in series [21] and 116 °C in series [23]. Besides, the Tm in series [1] was determined as 172.2 °C. The half-maximal inhibitory concentration (IC50) in series [2] amounted to 0.0079 µM; in series [3], 0.0078 µM; in [9] it was 13 µM; in [10], 3 µM; in series [11] it was 2.9 µM. The “Ratio IC50” value in series [4] was determined as 1; in series [12] it was 2; in series [13] it was 11; in series [14], 11; in [15] it was 7.5; in series [16], 32.4. In addition, the “Ratio IC50” value in [17] is 33.5; in [18] it was 1667; in series [19] it was 385; in series [20] it was 372. In addition, the figures for the 50% inhibitory concentration (IC50) at 48 h in series [5] and in [6] were 31.6 µM and 97.1 µM, respectively. The selectivity ratio in series [7] is 4000; in series [8], 12300; in [24], no more than 600; in series [25] it was no more than 600.
